Among the data in PubChem BioAssay (NCI) are TGI values, retold here.

Test systems include HL-60(TB) leukemia; IGROV1 ovarian; CCRF-CEM leukemia; SK-MEL-28 melanoma; NCI-H460 lung; UACC-62 melanoma; SK-OV-3 ovarian; LOX IMVI melanoma; NCI-H522 lung; U251 CNS; HOP-18 NSCLC; OVCAR-8 ovarian; A549 NSCLC; SF-268 CNS; OVCAR-5 ovarian; HOP-62 NSCLC; EKVX NSCLC; NCI-H226 lung.
Holding throughout (assay): inhibition of tumour cell growth, NCI panel, 48 h

Molecules are shown by their SMILES.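 48-hour exposure; five concentrations; linearly interpolated endpoints. The concentration for full growth arrest is given as TGI.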

Take `CCCCC/C=C1\CCC(CN(C)C)C1=O` (stereo not given): the TGI in the test with HL-60(TB) leukemia is 30.3 µM; in the test on IGROV1 ovarian, 32.6 µM; in the test with CCRF-CEM leukemia, 18.5 µM; in the test with SK-MEL-28 melanoma, 23.9 µM; with NCI-H460 lung, above 100 µM; in the test on UACC-62 melanoma it was 29.4 µM. The TGI with SK-OV-3 ovarian is 27.4 µM; in the test on LOX IMVI melanoma it was 20.6 µM; in the test with NCI-H522 lung, 13.4 µM; with U251 CNS, 20.7 µM; in the test with HOP-18 NSCLC, 39.4 µM; in the test with OVCAR-8 ovarian, above 41.7 µM. The TGI with A549 NSCLC is above 63.5 µM; with SF-268 CNS, 41.4 µM; with OVCAR-5 ovarian, 33.7 µM; with HOP-62 NSCLC, 31.7 µM; with EKVX NSCLC, above 56.3 µM; with NCI-H226 lung, 29.5 µM.

In the case of `CCOC(=O)C1SC(=Nc2ccccc2)N=C1C` (stereo not given), the TGI in the test on HL-60(TB) leukemia, in the test with IGROV1 ovarian, with SK-MEL-28 melanoma, in the test on NCI-H460 lung, in the test with LOX IMVI melanoma and with NCI-H522 lung was above 100 µM throughout. Besides, the TGI in the test with U251 CNS, in the test on HOP-18 NSCLC, in the test on OVCAR-8 ovarian, in the test on A549 NSCLC, in the test on SF-268 CNS and with OVCAR-5 ovarian was above 100 µM in each case. Moreover, the TGI with HOP-62 NSCLC, in the test on EKVX NSCLC and in the test on NCI-H226 lung was above 100 µM throughout.

For `CC(C)=CC1CC(=[N+]=[N-])C(=O)C1(C)C` (stereo not given), the TGI in the test with HL-60(TB) leukemia was above 100 µM; in the test on IGROV1 ovarian, above 100 µM; in the test with CCRF-CEM leukemia, above 83.7 µM; in the test with SK-MEL-28 melanoma it was above 100 µM; with NCI-H460 lung it was above 100 µM; with UACC-62 melanoma, above 100 µM. For the same compound, the TGI with SK-OV-3 ovarian, in the test on LOX IMVI melanoma, in the test on NCI-H522 lung, in the test with U251 CNS, in the test with HOP-18 NSCLC and in the test with OVCAR-8 ovarian was above 100 µM throughout. Further, the TGI with A549 NSCLC, in the test on SF-268 CNS, with OVCAR-5 ovarian, in the test on HOP-62 NSCLC, in the test on EKVX NSCLC and with NCI-H226 lung was above 100 µM in each case.

For the compound `CS(=O)(=O)c1ccc(-c2cc(-c3ccc(S(C)(=O)=O)cc3)[n+](-c3cc(-c4ccccc4)c([O-])c(-c4ccccc4)c3)c(-c3ccc(S(C)(=O)=O)cc3)c2)cc1`, the TGI in the test on IGROV1 ovarian, with SK-MEL-28 melanoma, in the test on NCI-H460 lung, with UACC-62 melanoma, with LOX IMVI melanoma and in the test on NCI-H522 lung was above 100 µM each time. Further, the TGI with U251 CNS, in the test on HOP-18 NSCLC, in the test with OVCAR-8 ovarian, with A549 NSCLC, in the test with SF-268 CNS and in the test on OVCAR-5 ovarian was above 100 µM each time. The TGI in the test with HOP-62 NSCLC, with EKVX NSCLC and in the test on NCI-H226 lung was above 100 µM in each case.

With `C[N+](C)(C)CC1CCC/C1=N\OC(=O)c1ccccc1` (stereo not given), the TGI with HL-60(TB) leukemia, with IGROV1 ovarian, with CCRF-CEM leukemia, in the test with SK-MEL-28 melanoma, with UACC-62 melanoma and with SK-OV-3 ovarian was above 100 µM throughout. Besides, the TGI in the test with LOX IMVI melanoma, in the test with NCI-H522 lung, in the test with U251 CNS, in the test with HOP-18 NSCLC, in the test on OVCAR-8 ovarian and in the test with A549 NSCLC was above 100 µM throughout. Also, the TGI in the test with SF-268 CNS, in the test with HOP-62 NSCLC, with EKVX NSCLC and in the test on NCI-H226 lung was above 100 µM throughout.

For `COc1ccc(C(C#N)NNC(=O)Cc2ccccc2)cc1OC` (stereo not given), the TGI in the test on HL-60(TB) leukemia, in the test on IGROV1 ovarian, with CCRF-CEM leukemia, with SK-MEL-28 melanoma, with NCI-H460 lung and in the test on UACC-62 melanoma was above 100 µM each time. The TGI in the test on SK-OV-3 ovarian, in the test on LOX IMVI melanoma, in the test with NCI-H522 lung, in the test on U251 CNS, in the test on HOP-18 NSCLC and with OVCAR-8 ovarian was above 100 µM in each case. The TGI in the test on A549 NSCLC, in the test on SF-268 CNS, with OVCAR-5 ovarian, with HOP-62 NSCLC and with NCI-H226 lung was above 100 µM each time.

Consider `O=S(=O)(c1ccccc1)N1N=C2c3ccccc3CCC[C@H]2C1c1ccccc1` (stereo not given in full), for which the TGI in the test with HL-60(TB) leukemia, in the test with IGROV1 ovarian, in the test with CCRF-CEM leukemia, with SK-MEL-28 melanoma, in the test with NCI-H460 lung and with UACC-62 melanoma was above 100 µM in each case. For the same compound, the TGI with SK-OV-3 ovarian, in the test on LOX IMVI melanoma, in the test on NCI-H522 lung, with U251 CNS, in the test with HOP-18 NSCLC and in the test with OVCAR-8 ovarian was above 100 µM in each case. For the same compound, the TGI in the test on A549 NSCLC, in the test on SF-268 CNS, with OVCAR-5 ovarian, in the test on HOP-62 NSCLC, with EKVX NSCLC and with NCI-H226 lung was above 100 µM throughout.

`O=C(CSc1c2ccccc2nc2ccccc12)Nc1ccccc1-c1ccccc1NC(=O)CSc1c2ccccc2nc2ccccc12`: the TGI was 18.7 µM in the test on HL-60(TB) leukemia; 42.8 µM in the test with IGROV1 ovarian; above 78.7 µM in the test with CCRF-CEM leukemia; 52 µM in the test on SK-MEL-28 melanoma; above 88.4 µM in the test on NCI-H460 lung; 52.7 µM in the test with UACC-62 melanoma. Moreover, the TGI is above 100 µM with SK-OV-3 ovarian; 39.1 µM in the test on LOX IMVI melanoma; 37.2 µM in the test on NCI-H522 lung; above 100 µM in the test on U251 CNS; above 100 µM in the test on HOP-18 NSCLC; above 86.8 µM with OVCAR-8 ovarian. Moreover, the TGI in the test on A549 NSCLC is above 100 µM; in the test with SF-268 CNS it was above 69.4 µM; in the test with OVCAR-5 ovarian it was above 100 µM; in the test with HOP-62 NSCLC it was above 63.3 µM; in the test on EKVX NSCLC, above 76.6 µM; with NCI-H226 lung it was above 80.5 µM.
